Source: US20200377501A1, “DEGRADERS OF EGFR AND METHODS OF USE THEREOF” (DANA-FARBER CANCER INSTITUTE, INC., priority 2018, published 2020)
Like-named read-outs stand apart in the source and are kept apart here.

Assays:
[1] = target: T1, EGFR T790M/L858R Ba/F3 cell line (Homo sapiens, UniProt P00533, T790M/L858R, cells depend on it); experiment: Ba/F3 cell proliferation (MTS assay); format: cell-based, murine; conditions: for Remaining cell proliferation activity (% of control): EGFR T790M/L858R Ba/F3
T1 construct: The constructs were shuttled into the retroviral vector JP1540 using the BD Creator™ System (BD Biosciences)
Protocol: The EGFR mutant L858R, Del E746_A750, L858R/T790M, DelE746_A750/T790M, L858R/T790M/C797S and Del/T790M/C797S Ba/F3 cells were previously described (Zhou et al., Nature 462, (2009), 1070-1074). All cell lines were maintained in RPMI 1640 (Cellgro; Mediatech Inc., Herndon, Calif.) supplemented with 10% FBS 100 units/mL penicillin, 100 units/mL streptomycin, and 2 mM glutamine. L858R cells were maintained in ACL-4 media (Invitrogen, Carlsbad, Calif.) supplemented with 5% FBS, 100 units/mL penicillin, 100 units/mL streptomycin, and 2 mM glutamine. The EGFR 1941R mutation was introduced via site directed mutagenesis using the Quick Change Site-Directed Mutagenesis kit (Stratagene; La Jolla, Calif.) according to the manufacturer's instructions. All constructs were confirmed by DNA sequencing. The constructs were shuttled into the retroviral vector JP1540 using the BD Creator™ System (BD Biosciences). Ba/F3 cells were infected with retrovirus and according to standard protocols, as described previously (Zhou 2009). Stable clones were obtained by selection in puromycin (2 μg/ml).
Growth and inhibition of growth was assessed by MTS assay and was performed according to previously established methods (Zhou 2009). The MTS assay is a colorimetric method for determining the number of viable cells that is based on the bioreduction of MTS by cells to a formazan product that is soluble in cell culture medium and can be detected spectrophotometrically. […] All experimental points were set up in six wells and all experiments were repeated at least three times. […] The curves were fitted using anon-linear regression model with a sigmoidal dose response.

[2] = target: T2, recombinant EGFR T790M/L858R kinase (Homo sapiens, UniProt P00533, L858R/T790M); experiment: HTRF-based EGFR biochemical assay
T2 construct: Constructs spanning residues 696-1022 of the human EGFR; GST (cleaved yes); made in house; host or cells: Sf9 insect cells (pTriEX system)
Protocol: Constructs spanning residues 696-1022 of the human EGFR (including wild type and L858R, L858R/T790M, T790M, and T790M/V948R mutant sequences) were prepared in a GST-fusion format using the pTriEX system (Novagen) for expression in Sf9 insect cells essentially as described (Yun et al., PNAS 105, 2070-2075 (2008); Yun et al., Cancer Cell 11, 217-227 (2007)). EGFR kinase proteins were purified by glutathione-affinity chromatography followed by size-exclusion chromatography after cleavage with TEV or thrombin to remove the GST fusion partner following established procedures.
EGFR biochemical assays were carried out using a homogeneous time-resolved fluorescence (HTRF) assay as described previously. […] All reactions were carried out at room temperature in white ProxiPlate™ 384-well Plus plates (PerkinElmer) and were quenched with 5 μL of 0.2 M EDTA at 60 min.

[3] = absence of cetuximab, read-out: Ba/F3 cellular activity (EC50) T790M/L858R
[4] = compound at 1 μM in the presence of 1 μg/mL cetuximab
[5] = read-out: Ba/F3 cellular activity (EC50) T790M/L858R + Cetuximab (1 μg/mL), presence of 1 μg/mL cetuximab

T1 sequence (P00533 whole entry T790M/L858R): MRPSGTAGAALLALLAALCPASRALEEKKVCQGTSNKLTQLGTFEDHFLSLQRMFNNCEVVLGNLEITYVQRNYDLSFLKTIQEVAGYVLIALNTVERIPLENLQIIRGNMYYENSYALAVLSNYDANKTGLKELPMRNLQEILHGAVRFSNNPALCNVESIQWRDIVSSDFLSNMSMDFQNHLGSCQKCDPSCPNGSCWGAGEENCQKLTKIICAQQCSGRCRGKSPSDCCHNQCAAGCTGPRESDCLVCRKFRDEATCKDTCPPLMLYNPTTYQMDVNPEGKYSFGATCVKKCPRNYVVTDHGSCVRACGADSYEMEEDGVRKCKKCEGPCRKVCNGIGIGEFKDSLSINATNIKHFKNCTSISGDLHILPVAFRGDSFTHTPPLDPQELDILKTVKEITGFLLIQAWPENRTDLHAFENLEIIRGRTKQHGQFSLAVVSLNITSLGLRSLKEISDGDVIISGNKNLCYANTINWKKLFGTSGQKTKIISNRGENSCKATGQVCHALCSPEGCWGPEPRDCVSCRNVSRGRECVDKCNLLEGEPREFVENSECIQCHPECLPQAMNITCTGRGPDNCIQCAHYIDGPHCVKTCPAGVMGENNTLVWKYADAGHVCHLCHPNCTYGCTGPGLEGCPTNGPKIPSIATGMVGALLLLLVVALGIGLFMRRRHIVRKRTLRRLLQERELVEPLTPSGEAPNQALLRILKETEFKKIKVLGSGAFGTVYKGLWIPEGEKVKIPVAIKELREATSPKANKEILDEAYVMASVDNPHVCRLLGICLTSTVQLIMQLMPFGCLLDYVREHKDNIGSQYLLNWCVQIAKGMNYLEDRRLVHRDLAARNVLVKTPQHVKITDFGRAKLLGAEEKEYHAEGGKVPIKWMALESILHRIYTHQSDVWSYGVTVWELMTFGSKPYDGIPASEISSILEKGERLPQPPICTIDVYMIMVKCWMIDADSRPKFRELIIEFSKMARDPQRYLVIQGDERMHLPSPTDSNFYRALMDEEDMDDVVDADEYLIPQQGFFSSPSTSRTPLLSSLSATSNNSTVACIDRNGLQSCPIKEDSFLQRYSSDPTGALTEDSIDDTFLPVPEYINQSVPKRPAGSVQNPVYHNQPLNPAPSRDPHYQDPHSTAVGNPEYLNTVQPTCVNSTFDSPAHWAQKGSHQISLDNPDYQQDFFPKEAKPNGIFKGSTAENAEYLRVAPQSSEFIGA
T2 sequence (P00533 696-1022 T790M/L858R): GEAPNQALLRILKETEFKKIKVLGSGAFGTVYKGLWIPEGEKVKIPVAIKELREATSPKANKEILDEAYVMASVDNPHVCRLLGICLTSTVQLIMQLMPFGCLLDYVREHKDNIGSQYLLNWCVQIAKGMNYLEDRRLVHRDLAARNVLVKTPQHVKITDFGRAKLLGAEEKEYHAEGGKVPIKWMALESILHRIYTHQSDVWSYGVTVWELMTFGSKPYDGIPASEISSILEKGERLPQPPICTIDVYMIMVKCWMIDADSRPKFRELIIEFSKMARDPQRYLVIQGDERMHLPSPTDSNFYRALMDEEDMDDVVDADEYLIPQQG

EC50 [1, 3] [nM] | Remaining cell proliferation activity (% of control) [1, 4] | Remaining cell proliferation activity (% of control) ([1]; compound at 1 μM) | EC50 [1, 5] [nM] | IC50 [2] [nM] | Compound
≥ 750 | B (25 ≤ B < 50) | D (75 ≤ D) | 500 to 750 | < 250 | O=C1c2cc(-c3ccc(N4CCNCC4)cc3)ccc2Nc2ccc(F)cc2N1Cc1ccccc1 [I-1, 10-Benzyl-8-fluoro-2-(4-(piperazin-1-yl)phenyl)-5,10-dihydro-11H-dibenzo[b,e][1,4]diazepin-11-one]
≥ 750 | B (25 ≤ B < 50) | D (75 ≤ D) | < 250 | – | O=C1c2cc(-c3ccc4[nH]ccc4c3)ccc2Nc2ccc(F)cc2N1Cc1ccccc1 [I-2]
≥ 750 | B (25 ≤ B < 50) | D (75 ≤ D) | < 250 | – | CN1CCC(n2cc(-c3ccc4c(c3)C(=O)N(Cc3ccccc3)c3cc(F)ccc3N4)cn2)CC1 [I-3]
≥ 750 | A (0 ≤ A < 25) | D (75 ≤ D) | 250 to 500 | – | O=C1c2cc(-c3ccc(-c4cn[nH]c4)cc3)ccc2Nc2ccc(F)cc2N1Cc1ccccc1 [I-4]
≥ 750 | D (75 ≤ D) | D (75 ≤ D) | ≥ 750 | – | O=C1c2cc(-c3ccc(N4CCNCC4)cc3)ccc2Nc2ccc(F)cc2N1c1ccccc1 [I-5]
≥ 750 | D (75 ≤ D) | D (75 ≤ D) | ≥ 750 | – | O=C1c2cc(-c3ccc(N4CCNCC4)cc3)ccc2Nc2ccc(F)cc2N1Cc1cccnc1 [I-6]
≥ 750 | C (50 ≤ C < 75) | D (75 ≤ D) | ≥ 750 | – | O=C1c2cc(-c3ccc(N4CCNCC4)cc3)ccc2Nc2ccc(F)cc2N1Cc1nccs1 [I-7]
≥ 750 | D (75 ≤ D) | D (75 ≤ D) | ≥ 750 | – | O=C1c2cc(-c3ccc4[nH]ccc4c3)ccc2Nc2ccc(F)cc2N1c1ccccc1 [I-8]
≥ 750 | D (75 ≤ D) | D (75 ≤ D) | ≥ 750 | – | O=C1c2cc(-c3ccc4[nH]ccc4c3)ccc2Nc2ccc(F)cc2N1Cc1cccnc1 [I-9]
≥ 750 | D (75 ≤ D) | D (75 ≤ D) | ≥ 750 | – | O=C1c2cc(-c3ccc4[nH]ccc4c3)ccc2Nc2ccc(F)cc2N1Cc1nccs1 [I-10]
≥ 750 | B (25 ≤ B < 50) | D (75 ≤ D) | 250 to 500 | – | O=C1c2cc(-c3ccc(N4CCNCC4)cc3)ccc2Nc2ccccc2N1Cc1ccccc1 [I-11]
≥ 750 | – | – | ≥ 750 | – | O=C1c2cc(-c3ccc(N4CCNCC4)cc3)ccc2Nc2ncc(F)cc2N1Cc1ccccc1 [I-12]
≥ 750 | – | – | ≥ 750 | – | O=C1c2cc(-c3ccc(N4CCNCC4)cc3)ccc2Nc2ccncc2N1Cc1ccccc1 [I-13]
≥ 750 | – | – | ≥ 750 | – | Nc1ccc2c(c1)N(Cc1ccccc1)C(=O)c1cc(-c3ccc4[nH]ccc4c3)ccc1N2 [I-14]
≥ 750 | – | – | ≥ 750 | – | CC(=O)Nc1ccc2c(c1)N(Cc1ccccc1)C(=O)c1cc(-c3ccc4[nH]ccc4c3)ccc1N2 [I-15]
250 to 500 | – | – | 250 to 500 | – | CCC(=O)Nc1ccc2c(c1)N(Cc1ccccc1)C(=O)c1cc(-c3ccc4[nH]ccc4c3)ccc1N2 [I-16]
– | – | – | – | < 250 | CN1CCN(c2ccc(-c3ccc4c(c3)C(=O)N(Cc3ccccc3)c3cc(F)ccc3N4)cc2)CC1 [I-17]
≥ 750 | – | – | < 250 | – | O=C1c2cc(-c3ccc(N4CCNCC4)cc3)ccc2Nc2ccc(F)cc2N1Cc1cccc2cc[nH]c12 [I-18]
≥ 750 | – | – | ≥ 750 | – | O=C1c2cc(-c3ccc(N4CCNCC4)cc3)ccc2Nc2ccc(F)cc2N1Cc1ccc2cc[nH]c2c1 [I-19]
≥ 750 | – | – | ≥ 750 | – | CN1CCC(n2cc(-c3ccc4c(c3)C(=O)N(Cc3cccc(F)c3)c3cc(F)ccc3N4)cn2)CC1 [I-22]
≥ 750 | – | – | ≥ 750 | – | CN1CCC(n2cc(-c3ccc4c(c3)C(=O)N(Cc3cccc(Cl)c3)c3cc(F)ccc3N4)cn2)CC1 [I-23]
≥ 750 | – | – | ≥ 750 | – | CN1CCC(n2cc(-c3ccc4c(c3)C(=O)N(Cc3cc(F)cc(F)c3)c3cc(F)ccc3N4)cn2)CC1 [I-24]
≥ 750 | – | – | ≥ 750 | – | CN1CCC(n2cc(-c3ccc4c(c3)C(=O)N(Cc3cccc5cc[nH]c35)c3cc(F)ccc3N4)cn2)CC1 [I-25]
